Converted amounts (≈) assume the structure as drawn. Where a SMILES comes first, the peptide text is derived from it. [ ]: non-standard residue; d: D form. Aic = NC1(C(=O)O)Cc2ccccc2C1
How the values were obtained:
Acinetobacter baumannii = experiment: Antimicrobial activity against Acinetobacter baumannii ATCC 19606 after 18 to 20 hrs by microbroth dilution method; type: functional; conditions: ATCC 19606 = CIP 70.34 = JCM 6841
Escherichia coli = experiment: Antimicrobial activity against Escherichia coli D21 after 18 to 20 hrs by microbroth dilution method; type: functional
Pseudomonas aeruginosa = experiment: Antimicrobial activity against Pseudomonas aeruginosa ATCC 27853 after 18 to 20 hrs by microbroth dilution method; type: functional
Pseudomonas syringae = experiment: Antimicrobial activity against Pseudomonas syringae pv tabaci NCPPB 1918 after 18 to 20 hrs by microbroth dilution method; type: functional, Pseudomonas amygdali pv. tabaci
Priestia megaterium = experiment: Antimicrobial activity against Bacillus megaterium Bm11 after 18 to 20 hrs by microbroth dilution method; type: functional
Staphylococcus aureus = experiment: Antimicrobial activity against Staphylococcus aureus Cowan I after 18 to 20 hrs by microbroth dilution method; type: functional
[1] = tested on: Staphylococcus epidermidis; experiment: Antimicrobial activity against Staphylococcus epidermidis ATCC 12228 after 18 to 20 hrs by microbroth dilution method; type: functional
Candida albicans = experiment: Antimicrobial activity against Candida albicans ATCC 10231 after 18 to 20 hrs by microbroth dilution method; type: functional
Pichia kudriavzevii = experiment: Antimicrobial activity against Candida krusei ATCC 6258 after 18 to 20 hrs by microbroth dilution method; type: functional
HaCaT [2] = experiment: Cytotoxicity against human HaCaT cells at 12.5 uM after 24 hrs by MTT assay relative to control; type: cell-based
HaCaT [3] = experiment: Cytotoxicity against human HaCaT cells at 25 uM after 24 hrs by MTT assay relative to control; type: cell-based
HaCaT [4] = experiment: Cytotoxicity against human HaCaT cells at 50 uM after 24 hrs by MTT assay relative to control; type: cell-based
HaCaT [5] = experiment: Cytotoxicity against human HaCaT cells at 1.56 to 6.25 uM after 24 hrs by MTT assay; type: cell-based

| MIC (Acinetobacter baumannii) [µM] | MIC (Escherichia coli) [µM] | MIC (Pseudomonas aeruginosa) [µM] | MIC (Pseudomonas syringae) [µM] | MIC (Priestia megaterium) [µM] | MIC (Staphylococcus aureus) [µM] | MIC [1] [µM] | MIC (Candida albicans) [µM] | MIC (Pichia kudriavzevii) [µM] | Compound | Activity (HaCaT [2]) [%] | Activity (HaCaT [3]) [%] | Activity (HaCaT [4]) [%] | Activity (HaCaT [5]) |
| --- | --- | --- | --- | --- | --- | --- | --- | --- | --- | --- | --- | --- | --- |
| 6.25 (≈ 10.3 µg/mL) | 25 (≈ 41.2 µg/mL) | 50 (≈ 82.5 µg/mL) | 12.5 (≈ 20.6 µg/mL) | 1.56 (≈ 2.57 µg/mL) | 3.12 (≈ 5.15 µg/mL) | 3.12 (≈ 5.15 µg/mL) | 1.56 (≈ 2.57 µg/mL) | 1.56 (≈ 2.57 µg/mL) | CC[C@H](C)[C@H](NC(=O)[C@H](CCCNC(=N)N)NC(=O)[C@@H]1CCCN1C(=O)[C@@H](CC(C)C)NC(=O)[C@H](Cc1ccccc1)NC(=O)[C@H](CCCCN)NC(=O)[C@H](CO)NC(=O)[C@H](Cc1ccccc1)NC(=O)[C@H](Cc1c[nH]c2ccccc12)NC(=O)[C@@H]1CCCN1C(=O)[C@@H](NC(=O)[C@@H](N)Cc1ccccc1)C(C)C)C(=O)N[C@@H](CC(C)C)C(N)=O (H-FVPWFSKF[dL]PRIL-NH2) | 16.15 | 77.06 | 96.61 | Non-Toxic |
| 25 (≈ 41.6 µg/mL) | 25 (≈ 41.6 µg/mL) | > 50 | > 50 | 3.12 (≈ 5.2 µg/mL) | > 50 | 50 (≈ 83.3 µg/mL) | 3.12 (≈ 5.2 µg/mL) | 3.12 (≈ 5.2 µg/mL) | CC[C@H](C)[C@H](NC(=O)[C@H](CCCNC(=N)N)NC(=O)[C@H]1C[C@@H](O)CN1C(=O)[C@@H](CC(C)C)NC(=O)[C@H](Cc1ccccc1)NC(=O)[C@H](CCCCN)NC(=O)[C@H](CO)NC(=O)[C@H](Cc1ccccc1)NC(=O)[C@H](Cc1c[nH]c2ccccc12)NC(=O)[C@@H]1CCCN1C(=O)[C@@H](NC(=O)[C@@H](N)Cc1ccccc1)C(C)C)C(=O)N[C@@H](CC(C)C)C(N)=O | 0 | 0 | 0 | Non-Toxic |
| 3.12 (≈ 5.35 µg/mL) | > 50 | > 50 | 1.56 (≈ 2.67 µg/mL) | 1.56 (≈ 2.67 µg/mL) | 1.56 (≈ 2.67 µg/mL) | 1.56 (≈ 2.67 µg/mL) | 6.25 (≈ 10.7 µg/mL) | 6.25 (≈ 10.7 µg/mL) | CC[C@H](C)[C@H](NC(=O)[C@H](CCCNC(=N)N)NC(=O)C1(NC(=O)[C@@H](CC(C)C)NC(=O)[C@H](Cc2ccccc2)NC(=O)[C@H](CCCCN)NC(=O)[C@H](CO)NC(=O)[C@H](Cc2ccccc2)NC(=O)[C@H](Cc2c[nH]c3ccccc23)NC(=O)[C@@H]2CCCN2C(=O)[C@@H](NC(=O)[C@@H](N)Cc2ccccc2)C(C)C)Cc2ccccc2C1)C(=O)N[C@@H](CC(C)C)C(N)=O (H-FVPWFSKF[dL][Aic]RIL-NH2) | 45.54 | 88.72 | 92.84 | Non-Toxic |
| 50 (≈ 82.5 µg/mL) | 50 (≈ 82.5 µg/mL) | > 50 | 50 (≈ 82.5 µg/mL) | 3.12 (≈ 5.15 µg/mL) | > 50 | 25 (≈ 41.2 µg/mL) | 3.12 (≈ 5.15 µg/mL) | 3.12 (≈ 5.15 µg/mL) | CC[C@H](C)[C@H](NC(=O)[C@H](CCCNC(=N)N)NC(=O)[C@H]1CCCN1C(=O)[C@@H](CC(C)C)NC(=O)[C@H](Cc1ccccc1)NC(=O)[C@H](CCCCN)NC(=O)[C@H](CO)NC(=O)[C@H](Cc1ccccc1)NC(=O)[C@H](Cc1c[nH]c2ccccc12)NC(=O)[C@@H]1CCCN1C(=O)[C@@H](NC(=O)[C@@H](N)Cc1ccccc1)C(C)C)C(=O)N[C@@H](CC(C)C)C(N)=O (H-FVPWFSKF[dL][dP]RIL-NH2) | 0 | 0 | 0 | Non-Toxic |
| 6.25 (≈ 10.4 µg/mL) | 25 (≈ 41.6 µg/mL) | 50 (≈ 83.3 µg/mL) | 12.5 (≈ 20.8 µg/mL) | 1.56 (≈ 2.6 µg/mL) | 6.25 (≈ 10.4 µg/mL) | 6.25 (≈ 10.4 µg/mL) | 3.12 (≈ 5.2 µg/mL) | 1.56 (≈ 2.6 µg/mL) | CC[C@H](C)[C@H](NC(=O)[C@H](CCCNC(=N)N)NC(=O)[C@@H]1C[C@@H](O)CN1C(=O)[C@@H](CC(C)C)NC(=O)[C@H](Cc1ccccc1)NC(=O)[C@H](CCCCN)NC(=O)[C@H](CO)NC(=O)[C@H](Cc1ccccc1)NC(=O)[C@H](Cc1c[nH]c2ccccc12)NC(=O)[C@@H]1CCCN1C(=O)[C@@H](NC(=O)[C@@H](N)Cc1ccccc1)C(C)C)C(=O)N[C@@H](CC(C)C)C(N)=O | 2.76 | 84.72 | 98.81 | Non-Toxic |

Reference: ChEMBL document CHEMBL4130416, “Glycine-replaced derivatives of [Pro3,DLeu9]TL, a temporin L analogue: Evaluation of antimicrobial, cytotoxic and hemolytic activities” (Eur J Med Chem, 2017)
